# From patent US12091424B2, “Rapamycin derivatives” (NOVARTIS AG, priority 2017, dated 2024)
# Legend:
# [1] = Comparative blood and brain concentrations in rats after oral dosing; assay type: in vivo; details: rat; p.o. 3, 10 and 30 mg/kg; 3 h and 24 h
# Description: Concentrations were determined using HPLC/Mass spectrometry. […] Blood and brain tissues were collected at 3 hours (h) and 24 h following treatment to determine concentrations of the compounds.
# [2] = in vivo; details: male, Sprague Dawley, rat, whole blood
# [3] = molecular target: FKBP51 (Homo sapiens (Human), UniProt Q13451); experiment: SPR assay, binding affinity to FKBP51; details: single-cycle kinetics
# Description: SPR Assay to Determine Binding Affinity to FK506-Binding Proteins (FKBP). N-terminal avi-his6 tagged FKBP fusions to FKBP12, FKBP51 and FKBP52 were expressed in E. coli and purified using standard chromatography. Each protein was subsequently immobilized on a streptavidin chip in a Biacore 8K SPR instrument (GE Healthcare). Using single-cycle kinetics, compound titrations were flowed at 45 uL/min over each surface using 2-minute association and 30-minute dissociation phases in a buffer containing 50 mM Tris pH 7.5/150 mM NaCl/0.01% Tween 20/1 mM DTT/2% DMSO. The data was fit using low molecular weight (LMW) single-cycle kinetics. The equilibrium dissociation constants (KD) are reported.
# [4] = test system: S6K1 (Thr389) in FKBP12 knock-down 293T cells; experiment: S6K1 (Thr389) phosphorylation ELISA in FKBP12 knock-down 293T cells; assay type: cell-based; details: 2 hours treatment
# Description: Generating FKPB12 knock-down cells. […] Selection was performed with puromycin for 48 hours and cells were plated for colony formation. FKBP12 knock-down clones were screened by immunoblotting with an anti-FKBP12 antibody (Thermo Scientific, Pierce #PA1-026A).
# WT, FKBP12 knock-down and FKBP12 knock-out 293T cells were plated at a density of 30,000 cells per well in poly-D-Lysine coated 96-well plates (Corning, #354461) in Dulbecco's modified Eagle's medium (ThermoFisher, #11995-065) supplemented with 10% fetal bovine serum (ThermoFisher, #16140-071). Cells were incubated at 37° C., 5% CO2 for 48 hours until they reached 80% confluence. […] Media supplemented with blank Dimethyl sulfoxide (DMSO) was used as a control for both compounds. Phosphorylated amounts of S6K1 (Thr389) were detected by a sandwich ELISA kit (Cell signaling, #7063C) following the manufacture's protocol.
# [5] = test system: mTORC1 pathway; experiment: Inhibition of mTORC1 pathway in rat liver (p-S6/t-S6 immunoblot); assay type: in vivo
# Description: Protein extraction and immunoblotting. For protein extraction, snap frozen tissues were lysed in MSD Lysis Buffer (MSD, Rockville, Maryland), supplemented with complete EDTA free protease inhibitor and PhosSTOP phosphatase inhibitor tablets (Roche, Manheim, Germany), and centrifuged at 13,000 g for 20 min at 4° C. The resultant supernatant was used for immunoblotting. Protein was quantified with BCA protein assay (Thermo Scientific, MA). Samples were resolved on 4-20% Criterion™ TGX™ Precast Midi Protein gels (Bio-Rad, CA) and transferred onto nitrocellulose membranes (Bio-Rad, CA) using a Trans Turbo Blot system (Bio-Rad, CA). Immunoblotting was performed with antibodies to p-S6 and t-S6 from Cell Signaling Technologies (all 1:1000 in TBS-T with 5% BSA). The ‘p’ and ‘t’ prefixes signify ‘phosphorylated’ and ‘total’ forms respectively. HRP-conjugated secondary antibodies against rabbit (#7074) were from Cell Signaling Technologies, MA. […] Resultant digital images were converted into a TIFF format and quantified using ImageJ software.
# The ability of Example 2 to inhibit mTORC1 pathway in vivo was determined in rats aged 4 months (FIG. 5A-5D).
# [6] = test system: mTORC1 signaling; experiment: MEF TSC1−/− cell-based assay for rapalog potency (pS6); design: species or system Mouse; details: Mus musculus, MEF TSC1−/− cells; average from multiple assays
# Description: Cell-based assay for rapalog potency determination. Rapalog potency was determined using MEF TSC1−/− cell based assay. MEF TSC1−/− cells are Mouse Embryonic Fibroblasts deficient in Tuberous sclerosis protein—TSC1, which negatively regulates mTORC1 signaling and thus display constitutive mTORC1 activation, resulting in phosphorylation (activation) of downstream molecules. This cell-based assay is used to measure inhibition (de-phosphorylation) of S6 and 4EBP1 by rapalogs or other mTOR inhibitors.
# MEF TSC1−/− cells were plated on Poly-D-lysine coated 384 well Griener clear bottom plates and incubated overnight at 37° C., 5% CO2. […] Nuclei were visualized with Hoechst (ThermoFisher Scientific #H3570) staining. Cells were imaged (InCell 600) using respective fluorescence channels and the potency of mTOR inhibitors was defined by pS6 IC50 (nM).
# In vitro potency of mTOR inhibitors was defined by pS6 IC50 (nM) in MEF TSC1−/− cells.
# Chain of FKBP51 (Q13451 whole entry, the tested form may be a part): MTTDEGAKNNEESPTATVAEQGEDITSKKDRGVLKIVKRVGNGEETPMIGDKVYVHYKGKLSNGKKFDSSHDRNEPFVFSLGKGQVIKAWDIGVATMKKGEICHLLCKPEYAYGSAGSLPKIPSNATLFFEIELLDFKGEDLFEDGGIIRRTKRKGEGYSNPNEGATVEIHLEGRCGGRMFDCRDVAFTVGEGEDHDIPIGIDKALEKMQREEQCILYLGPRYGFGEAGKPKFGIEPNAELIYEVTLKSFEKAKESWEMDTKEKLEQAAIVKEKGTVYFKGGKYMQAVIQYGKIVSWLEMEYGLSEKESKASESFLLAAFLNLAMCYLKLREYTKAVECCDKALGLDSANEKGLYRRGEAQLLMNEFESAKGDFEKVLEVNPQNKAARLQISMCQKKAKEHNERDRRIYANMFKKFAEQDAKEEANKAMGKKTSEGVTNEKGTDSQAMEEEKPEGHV
smiles,measurement,setting,value
"CO[C@@H]1C[C@H](C[C@@H](C)[C@@H]2CC[C@H](C)/C=C(\C)[C@@H](O)[C@@H](OC)C(=O)[C@H](C)C[C@H](C)/C=C/C=C/C=C(\C)[C@H](N3CCCS3(=O)=O)C[C@@H]3CC[C@@H](C)[C@@](O)(O3)C(=O)C(=O)N3CCCC[C@H]3C(=O)O2)CC[C@H]1O [Example 2, (R)—C16-(1,1-dioxidoisothiazolidin-2-yl)-C32-deoxo-rapamycin]",blood concentrations compared with RAD001,[1],higher
same,brain concentrations compared with RAD001,[1],higher
same,clearance,"[2]; iv, 1 mg/kg",9 mL/min/kg
same,half-life,"[2]; iv, 1 mg/kg",9.9 h
same,bioavailability,"[2]; oral, 3 mg/kg",18%
same,Kd,[3],> 10000 nM
same,maximum inhibition of S6K1(Thr389),[4],40%
same,S6 inactivation in rat livers,[5]; 24 h following dosing with 10 (trend p=0.06) and 30 mg/kg,remained inactivated
same,de-phosphorylation (inactivation) of S6 in rat livers,"[5]; single dose 3, 10 and 30 mg/kg, three hours following dosing, vs vehicle",significant de-phosphorylation
same,IC50,[6],0.274 nM
